From patent publication US7279494B2, “Antimicrobial [3.1.0] bicyclohexylphenyl-oxazolidinone derivatives and analogues” (Pfizer Inc., priority 2003, dated 2007)
Converted amounts (≈) assume the structure as drawn.

Legend:
S. aureus UC9213 = test: MIC by standard agar dilution, S. aureus UC9213; type: cell-based; settings: Staphylococcus aureus, UC9213, Mueller Hinton agar, incubated overnight at 35° C.
Method in brief: (§1)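 Agar dilution MIC: 2-fold serial compound dilutions in Mueller Hinton agar, spot-inoculated with ~10^4–10^5 cells from 0.5 McFarland suspensions diluted 1:20 in TSB. Incubated overnight at 35 °C; MIC (μg/mL) taken as lowest concentration preventing visible growth.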

S. pneumoniae UC9912 = test: MIC by standard agar dilution, S. pneumoniae UC9912; type: cell-based; settings: Streptococcus pneumoniae, UC9912, Mueller Hinton agar, incubated overnight at 35° C.
Method in brief: as §1

H. influenzae 30063 = test: MIC by standard agar dilution, H. influenzae 30063; type: cell-based; settings: Haemophilus influenzae, 30063, agar dilution, Mueller Hinton agar, incubated overnight at 35° C.; read-out: H. influenzae 30063 MIC
Method in brief: as §1

Compound | MIC (S. aureus UC9213) [µg/mL] | MIC (S. pneumoniae UC9912) [µg/mL] | MIC (H. influenzae 30063) [µg/mL] | melting point [°C]
CC(=O)NC[C@H]1CN(c2ccc([C@H]3[C@@H]4CN(C(=O)CN)C[C@@H]43)c(F)c2)C(=O)O1 [Example 35, N-[((5S)-3-{3-fluoro-4-[exo-(1R,5S)-3-aminoacetyl-3-azabicyclo[3.1.0]hex-6-yl]phenyl}-2-oxo-1,3-oxazolidin-5-yl)methyl]acetamide] | 8 (≈ 20.5 µM) | 2 (≈ 5.12 µM) | 16 (≈ 41 µM) | 
CC(=O)NC[C@H]1CN(c2ccc([C@H]3[C@@H]4CN(C(=O)c5cn[nH]c5)C[C@@H]43)c(F)c2)C(=O)O1 [Example 40, N-[((5S)-3-{3-fluoro-4-[exo-(1R,5S)-3-(1H-pyrazole-4-carbonyl)-3-azabicyclo[3.1.0]hex-6-yl]phenyl}-2-oxo-1,3-oxazolidin-5-yl)methyl]acetamide] | 4 (≈ 9.36 µM) | 2 (≈ 4.68 µM) | 16 (≈ 37.4 µM) | 
CCC(=O)NC[C@H]1CN(c2ccc([C@H]3[C@@H]4CN(C(=O)[C@@H](O)CO)C[C@@H]43)c(F)c2)C(=O)O1 [Example 28, N-[((5S)-3-{3-fluoro-4-[exo-(1R,5S)-3-((2S)-2,3-dihydroxypropanoyl)-3-azabicyclo[3.1.0]hex-6-yl]phenyl}-2-oxo-1,3-oxazolidin-5-yl)methyl]propanamide] | 4 (≈ 9.19 µM) | 4 (≈ 9.19 µM) | 8 (≈ 18.4 µM) | 
N#CCC(=O)NC[C@H]1CN(c2cc(F)c([C@H]3[C@@H]4C[S+]([O-])C[C@@H]43)c(F)c2)C(=O)O1 (stereo partly drawn) [Example 70, 2-cyano-N-[((5S)-3-{3,5-difluoro-4-[exo-(1R,5S)-3-oxido-3-thiabicyclo[3.1.0]hex-6-yl]phenyl}-2-oxo-1,3-oxazolidin-5-yl)methyl]acetamide] | 2 (≈ 4.89 µM) | 1 (≈ 2.44 µM) | 4 (≈ 9.77 µM) | 
CC(=O)NC[C@H]1CN(c2ccc([C@H]3[C@@H]4CN(C(=O)C(C)(C)O)C[C@@H]43)c(F)c2)C(=O)O1 [Example 32, N-[((5S)-3-{3-fluoro-4-[exo-(1R,5S)-3-(2-hydroxy-2-methyl-propanoyl)-3-azabicyclo[3.1.0]hex-6-yl]phenyl}-2-oxo-1,3-oxazolidin-5-yl)methyl]acetamide] | 2 (≈ 4.77 µM) | 0.5 (≈ 1.19 µM) | 8 (≈ 19.1 µM) | 
CCC(=O)NC[C@H]1CN(c2cc(F)c([C@H]3[C@@H]4C[S+]([O-])C[C@@H]43)c(F)c2)C(=O)O1 (stereo partly drawn) [Example 58, N-[((5S)-3-{3,5-difluoro-4-[exo-(1R,5S)-3-oxido-3-thiabicyclo[3.1.0]hex-6-yl]phenyl}-2-oxo-1,3-oxazolidin-5-yl)methyl]propanamide] | 1 (≈ 2.51 µM) | 1 (≈ 2.51 µM) | 2 (≈ 5.02 µM) | 

Continued, values first:

MIC (S. aureus UC9213) [µg/mL] | MIC (S. pneumoniae UC9912) [µg/mL] | MIC (H. influenzae 30063) [µg/mL] | melting point [°C] | Compound
4 (≈ 11.4 µM) | 1 (≈ 2.85 µM) | ≤ 32 | 177 to 178 | CC(=O)NC[C@H]1CN(c2ccc([C@H]3[C@@H]4CSC[C@@H]43)c(F)c2)C(=O)O1 [Example 1, N-[((5S)-3-{3-fluoro-4-[exo-(1R,5S)-3-thiabicyclo[3.1.0]hex-6-yl]phenyl}-2-oxo-1,3-oxazolidin-5-yl)methyl]acetamide]
1 (≈ 2.5 µM) | 0.5 (≈ 1.25 µM) | 8 (≈ 20 µM) |  | CC(=O)NC[C@H]1CN(c2cc(F)c([C@H]3[C@@H]4CS(=O)(=O)C[C@@H]43)c(F)c2)C(=O)O1 [Example 13, N-[((5S)-3-{4-[exo-(1R,5S)-3,3-dioxido-3-thiabicyclo[3.1.0]hex-6-yl]-3,5-difluorophenyl}-2-oxo-1,3-oxazolidin-5-yl)methyl]acetamide]
4 (≈ 9.38 µM) | 1 (≈ 2.34 µM) | 8 (≈ 18.8 µM) |  | O=C(NC[C@H]1CN(c2cc(F)c([C@H]3[C@@H]4CS(=O)(=O)C[C@@H]43)c(F)c2)C(=O)O1)C1CC1 [Example 62]
4 (≈ 11.1 µM) | 1 (≈ 2.77 µM) | 8 (≈ 22.1 µM) |  | CC(=O)NC[C@H]1CN(c2ccc([C@H]3[C@@H]4CN(C=O)C[C@@H]43)c(F)c2)C(=O)O1 [Example 8, N-[((5S)-3-{3-fluoro-4-[exo-(1R,5S)-3-formyl-3-azabicyclo[3.1.0]hex-6-yl]phenyl}-2-oxo-1,3-oxazolidin-5-yl)methyl]acetamide]
1 (≈ 2.41 µM) | 1 (≈ 2.41 µM) | 4 (≈ 9.65 µM) |  | CCC(=O)NC[C@H]1CN(c2cc(F)c([C@H]3[C@@H]4CS(=O)(=O)C[C@@H]43)c(F)c2)C(=O)O1 [Example 59, N-[((5S)-3-{3,5-difluoro-4-[exo-(1R,5S)-3,3-dioxido-3-thiabicyclo[3.1.0]hex-6-yl]phenyl}-2-oxo-1,3-oxazolidin-5-yl)methyl]propanamide]
4 (≈ 9.82 µM) | 4 (≈ 9.82 µM) | 8 (≈ 19.6 µM) |  | N#CCC(=O)NC[C@H]1CN(c2ccc([C@H]3[C@@H]4CS(=O)(=O)C[C@@H]43)c(F)c2)C(=O)O1 [Example 69, 2-cyano-N-[((5S)-3-{3-fluoro-4-[exo-(1R,5S)-3,3-dioxido-3-thiabicyclo[3.1.0]hex-6-yl]phenyl}-2-oxo-1,3-oxazolidin-5-yl)methyl]acetamide]
